Literature values in patent US5143902A, “Glucagon analogs with ASP^9 replacements or deletions” (The Rockefeller University, priority 1991, dated 1992).

Tests used:
Details in all cases: background
adenylate cyclase = test system: adenylate cyclase
[1] = test system: another binding system in the hepatocyte membrane
glucagon receptor = test system: glucagon receptor

**Q.** For “Nα- trinitrophenyl [12-homoarginine] glucagon”, which “activation of adenylate cyclase” value (adenylate cyclase) is on record?
**A.** Its value is “without significant activation of adenylate cyclase”.

**Q.** And the “activation of another binding system producing inositol trisphosphate and calcium ions” value [1]?
**A.** Its value is “activates another binding system in the hepatocyte membrane leading to the production of inositol trisphosphate and calcium ions”.

**Q.** What about the “binding to the glucagon receptor” value (glucagon receptor) of the same substance?
**A.** The value was “does bind to the glucagon receptor”.
